Experiment [1] concerns REV-ERB LBD interaction with NCoR ID motif peptides. Description: fluorescence-based peptide binding assays. The note with it: fig. S2A; authors attribute it to heme quenching artifact.
Experiment [2] has the same test system. The note with it: REV-ERBs; cited from earlier work. From the text: The iron-centered porphyrin heme has been identified as the endogenous REV-ERB ligand ([7], [8]). […] Structural data would help establish that heme directly produces a REV-ERB LBD conformation that enhances NCoR binding. However, published biochemical and structural studies contradict cell-based evidence ([7]–[11]).

A further experiment relates to REV-ERBβ LBD / NCoR RID. Description: Chemical cross-linking mass spectrometry (XL-MS). The note with it: LBD:RID complexes ± heme; DSSO; significant at Padj < 0.05. The format is binding. As to the method: (§1) Apo or heme-bound REV-ERBβ LBD and NCoR RID protein samples were cross-linked in Hepes gel filtration buffer [25 mM Hepes (pH 7.5) at room temperature, 50 mM NaCl, and 0.5 mM TCEP]. Non–cross-linked negative controls were generated using the same procedure without the addition of DSSO (Thermo Fisher Scientific). Samples included 4 μM apo LBD with or without 2 μM RID and 4 μM heme-bound LBD with or without 2 μM RID; complexes were preincubated 1 hour on ice. Reactions were initiated by spiking DSSO in DMSO at a final concentration of 600 μM in 50-μl solutions. The final molar ratio of cross-linker:protein was 100:1. The reactions were incubated at 25°C for 45 min before being quenched by the addition of tris (pH 8.0) to a final concentration of 50 mM. Each cross-link reaction was done in triplicate, and the reaction replicates were pooled after quenching. Samples (10 μl) were loaded for SDS-PAGE analysis with Coomassie staining to confirm the presence of cross-linked protein. The remaining cross-linked and non–cross-linked samples were then acetone-precipitated at −20°C overnight, and the protein was pelleted by centrifugation at 16,000 relative centrifugal force (rcf) for 5 min at 4°C. After decanting, the pellets were dried for 15 min at room temperature before being resuspended in 12.5 μl of resuspension buffer [50 mM ammonium bicarbonate and 8 M urea (pH 8.0)]. […]

Experiment [3] can be described thus: heme fluorescence quenching. The note with it: fig. S2C.
A further experiment concerns REV-ERBβ LBD. Description: DSSO chemical cross-linking, SDS-PAGE. Format: binding, human. The note with it: LBD-only samples, 600 μM DSSO, 25°C, 45 min. As to the method:
To further support this stoichiometry, we performed chemical cross-linking analysis of apo or heme-bound LBD ± RID using DSSO (disuccinimidyl sulfoxide), a cross-linker that cross-links lysine residues as well as serine, threonine, and tyrosine residues (fig. S9, A and B).
as §1, with “protein.” for “protein. The remaining cross-linked and non–cross-linked samples were then acetone-precipitated at −20°C overnight, and the protein was pelleted by centrifugation at 16,000 relative centrifugal force (rcf) for 5 min at 4°C. After decanting, the pellets were dried for 15 min at room temperature before being resuspended in 12.5 μl of resuspension buffer [50 mM ammonium bicarbonate and 8 M urea (pH 8.0)].”

Molecules are shown by their SMILES.

Turning to `C=CC1=C(C)c2cc3[n-]c(cc4[n-]c(cc5nc(cc1n2)C(C)=C5C=C)c(C)c4CCC(=O)O)c(CCC(=O)O)c3C.[Fe+2]` [heme], the “effect of heme on ID peptide interaction in fluorescence-based assays” value in experiment [1] was “dose-dependently reduces REV-ERB LBD interaction with peptides derived from NCoR ID motifs”. The “displacement of NCoR ID peptides in fluorescence-based biochemical assays” value in experiment [2] is on record as “dose-dependently displace NCoR interaction domain (ID) peptides from the REV-ERBs”. Also, the “effect of heme on cross-links” value with REV-ERBβ LBD / NCoR RID was “reduced LBD-LBD and LBD-RID cross-links, particularly for residues in the AF-2 surface”. The “heme quenching of fluorophores” value in experiment [3] is recorded as “quenches fluorophores across a broad range of emissions”. Besides, in the experiment with REV-ERBβ LBD, the “LBD dimer band by cross-linking SDS-PAGE, effect of heme” value is reported as “weak dimer band in LBD-only samples that was unchanged by heme”.

Values taken from paper PMC7840129, “Structural basis for heme-dependent NCoR binding to the transcriptional repressor REV-ERBβ” (Science Advances, 2021).
